Laboratory results from patent publication US20180318311A1, “TRICYCLIC 2-QUINOLINONES AS ANTIBACTERIALS” (priority 2017, published 2018).
≈ marks a conversion by molar mass, not a printed value. Structures can show the parent of a compound that is named as a salt.

Experiments:
Format in all cases: cell-based
[1] = system: S. aureus ATCC 49951 (NB01006); assay: MIC by broth microdilution, S. aureus NB01006; details: 35° C., 20 hours; for MIC: Staphylococcus aureus, ATCC49951, CAMHB, read-out: Antibacterial activity (MIC) NB01006
Method in brief: (§1)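 CLSI broth microdilution in cation-adjusted Mueller-Hinton broth, inoculum about 5×10^5 CFU/mL from overnight MHA cultures. Two-fold compound dilutions in 1% final DMSO; plates incubated 20 h at 35° C in ambient air. MIC (μg/mL) was the lowest concentration preventing visible growth, checked by OD600 and visual inspection.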

[2] = system: S. aureus NB01006-AVR005, gyrA (S84L), grlA (580F) and grlB (E471K); assay: microbe, parasite or virus in culture; details: for MIC: Staphylococcus aureus, 20 h, read-out: Antibacterial activity (MIC) NB01006-AVR005
Method in brief: as §1

[3] = system: S. aureus NB01080 fluoroquinolone-resistant clinical isolate; assay: MIC by broth microdilution, S. aureus NB01080; details: CAMHB, 35° C., 20 hours; for MIC: Staphylococcus aureus, read-out: Antibacterial activity (MIC) NB01080
Method in brief: as §1

[4] = system: E. faecalis ATCC 29212 (NB04001); assay: MIC by broth microdilution, E. faecalis NB04001; details: 35° C., 20 hours; for MIC: Enterococcus faecalis, ATCC29212, CAMHB, read-out: Antibacterial activity (MIC) NB04001
Method in brief: as §1

[5] = system: S. pneumoniae ATCC 25922 (NB07001); assay: MIC by broth microdilution, S. pneumoniae NB07001; details: for MIC: Streptococcus pneumoniae, ATCC25922, 20 h, read-out: Antibacterial activity (MIC) NB07001
Method in brief: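 CAMHB, ~5×10^5 CFU/mL, 2-fold serial dilutions (final DMSO 1%), 35° C, ambient air, 20 h. Read OD600 plus visual check; MIC = lowest conc. with no visible growth, μg/mL.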

[6] = system: E. coli ATCC 25922 (NB27001); assay: MIC by broth microdilution, E. coli NB27001; details: 35° C., 20 hours; for MIC: Escherichia coli, ATCC25922, CAMHB, read-out: Antibacterial activity (MIC) NB27001
Method in brief: as §1

[7] = system: P. aeruginosa NB52019, wild-type PAO1 strain; assay: MIC by broth microdilution, P. aeruginosa NB52019; details: CAMHB, 35° C., 20 hours; for MIC: Pseudomonas aeruginosa, read-out: Antibacterial activity (MIC) NB52019
Method in brief: as §1

In the case of `C[C@H]1COc2c(N3CC[C@@H](C4(N)CC4)C3)cc(N)c3cc(C(=O)O)c(=O)n1c23` [Example 20, (S)-8-amino-10-((R)-3-(1-aminocyclopropyl)pyrrolidin-1-yl)-3-methyl-5-oxo-2,3-dihydro-5H-[1,4]oxazino[2,3,4-ij]quinoline-6-carboxylic acid], the MIC [1] is reported as less than 1 µg/mL, the MIC [2] is reported as 1 to 32 µg/mL (≈ 2.6 to 83.2 µM) and the MIC [3] is reported as 1 to 32 µg/mL (≈ 2.6 to 83.2 µM). For the same compound, the MIC [4] was 1 to 32 µg/mL (≈ 2.6 to 83.2 µM), the MIC [5] was less than 1 µg/mL and the MIC [6] was 1 to 32 µg/mL (≈ 2.6 to 83.2 µM). The MIC [7] was greater than 32 µg/mL.

Compound `C[C@H]1COc2c(N3CC[C@@H](C4(N)CC4)C3)c(F)c(C#N)c3cc(C(=O)O)c(=O)n1c23` [Example 21.1, (S)-10-((R)-3-(1-aminocyclopropyl)pyrrolidin-1-yl)-8-cyano-9-fluoro-3-methyl-5-oxo-2,3-dihydro-5H-[1,4]oxazino[2,3,4-ij]quinoline-6-carboxylic acid trifluoroacetate salt] has an MIC [1] of less than 1 µg/mL, an MIC [2] of less than 1 µg/mL and an MIC [3] of less than 1 µg/mL. It also gave an MIC [4] of less than 1 µg/mL, an MIC [5] of less than 1 µg/mL and an MIC [6] of 1 to 32 µg/mL. It also gave an MIC [7] greater than 32 µg/mL.

`C[C@H]1COc2c(N3CC[C@@H](C4(N)CC4)C3)cc(C#N)c3cc(C(=O)O)c(=O)n1c23` [Example 21.2, (S)-10-((R)-3-(1-aminocyclopropyl)pyrrolidin-1-yl)-8-cyano-3-methyl-5-oxo-2,3-dihydro-5H-[1,4]oxazino[2,3,4-ij]quinoline-6-carboxylic acid] gave an MIC [1] of less than 1 µg/mL, an MIC [2] of 1 to 32 µg/mL (≈ 2.54 to 81.1 µM) and an MIC [3] of 1 to 32 µg/mL (≈ 2.54 to 81.1 µM). For the same compound, the MIC [4] was 1 to 32 µg/mL (≈ 2.54 to 81.1 µM), the MIC [5] was less than 1 µg/mL and the MIC [6] was 1 to 32 µg/mL (≈ 2.54 to 81.1 µM). The MIC [7] was greater than 32 µg/mL.

`Cc1c(F)c(N2CC[C@@H](C3(N)CC3)C2)c2c3c1cc(C(=O)O)c(=O)n3[C@@H](C)CO2` [Example 22, (S)-10-((R)-3-(1-aminocyclopropyl)pyrrolidin-1-yl)-9-fluoro-3,8-dimethyl-5-oxo-2,3-dihydro-5H-[1,4]oxazino[2,3,4-ij]quinoline-6-carboxylic acid] gave an MIC [1] of less than 1 µg/mL, an MIC [2] of 1 to 32 µg/mL (≈ 2.49 to 79.7 µM) and an MIC [3] of less than 1 µg/mL. For the same compound, the MIC [4] was less than 1 µg/mL, the MIC [5] was less than 1 µg/mL and the MIC [6] was 1 to 32 µg/mL (≈ 2.49 to 79.7 µM). For the same compound, the MIC [7] was greater than 32 µg/mL.

`CCc1c(F)c(N2CC[C@@H](C3(N)CC3)C2)c2c3c1cc(C(=O)O)c(=O)n3[C@@H](C)CO2` [Example 23, (S)-10-((R)-3-(1-aminocyclopropyl)pyrrolidin-1-yl)-8-ethyl-9-fluoro-3-methyl-5-oxo-2,3-dihydro-5H-[1,4]oxazino[2,3,4-ij]quinoline-6-carboxylic acid] gave an MIC [1] of 1 to 32 µg/mL (≈ 2.41 to 77 µM), an MIC [2] greater than 32 µg/mL and an MIC [3] of 1 to 32 µg/mL (≈ 2.41 to 77 µM). It also gave an MIC [4] of 1 to 32 µg/mL (≈ 2.41 to 77 µM), an MIC [5] of 1 to 32 µg/mL (≈ 2.41 to 77 µM) and an MIC [6] greater than 32 µg/mL. It also gave an MIC [7] greater than 32 µg/mL.

For `COc1c(N2C[C@@H]3CCCN[C@@H]3C2)c(F)cc2c(=O)c(C(=O)O)cn(C3CC3)c12` [MOX, moxifloxacin, reference compound], the MIC [1] was less than 1 µg/mL, the MIC [2] was 1 to 32 µg/mL (≈ 2.49 to 79.7 µM) and the MIC [3] was greater than 32 µg/mL. The MIC [4] was less than 1 µg/mL, the MIC [5] was less than 1 µg/mL and the MIC [6] was less than 1 µg/mL. For the same compound, the MIC [7] was 1 to 32 µg/mL (≈ 2.49 to 79.7 µM).

For “(S)-9-fluoro-3-methyl-10-((R)-3-(1-((2,2,2-trifluoroacetyl)-14-azanyl)cyclopropyl)pyrrolidin-1-yl)-2,3-dihydro-5H-[1,4]oxazino[2,3,4-ij]quinolin-5-one trifluoroacetate salt [Example 6.1]”, the “Antibacterial activity (MIC) NB01006” value ([1]; CAMHB) was “A (1 > A)”, the “Antibacterial activity (MIC) NB01006-AVR005” value ([2]; ciprofloxacin-selected S. aureus mutant, CAMHB, 35° C., 20 hours) was “A (1 > A)” and the “Antibacterial activity (MIC) NB01080” value [3] was “A (1 > A)”. The “Antibacterial activity (MIC) NB04001” value ([4]; CAMHB) was “A (1 > A)”, the “Antibacterial activity (MIC) NB07001” value ([5]; S. pneumoniae, CAMHB supplemented with 5% lysed horse blood, 35° C., 20 hours) was “A (1 > A)” and the “Antibacterial activity (MIC) NB27001” value ([6]; CAMHB) was “B (32 > B ≥ 1)”. The “Antibacterial activity (MIC) NB52019” value [7] was “C (C ≥ 32)”.
